Measured values: PubChem BioAssay AID248 (DTP/NCI, 2004)
“And” between values parts separate entries of the source, which are not always exact repeats. Identical values can stand only once. Inconclusive results and toxic doses are left out. Cut-off read from the data, not from the text of the source: active = T/C of 150% or more; inactive = T/C below 125%.

System: L1210 leukemia ip in BDF1 mice, survival T/C
Assay: NCI In Vivo Anticancer Drug Screen. Data for tumor model L1210 Leukemia (intraperitoneal) in B6D2F1 (BDF1) mice
Conditions: endpoint: mean survival time, higher = longer survival
How it was run: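 Each compound was tested against a transplantable tumor grown in mice. The endpoint was survival, with treated animals benchmarked against vehicle controls as a simple ratio.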

[1] = dose: 100.0 mg/kg/injection, schedule: Q01DX009 (ip), vehicle: Klucel (hydroxypropylcellulose) (HPC)
[2] = dose: 100.0 mg/kg/injection, schedule: Q04DX002 (ip), vehicle: Klucel (hydroxypropylcellulose) (HPC)
[3] = dose: 200.0 mg/kg/injection, schedule: Q04DX002 (ip), vehicle: Klucel (hydroxypropylcellulose) (HPC)
[4] = dose: 100.0 mg/kg/injection, schedule: Q04DX003 (ip), vehicle: Klucel (hydroxypropylcellulose) (HPC)
[5] = dose: 200.0 mg/kg/injection, schedule: Q04DX003 (ip), vehicle: Klucel (hydroxypropylcellulose) (HPC)
[6] = dose: 400.0 mg/kg/injection, schedule: Q04DX003 (ip), vehicle: Klucel (hydroxypropylcellulose) (HPC)
[7] = dose: 200.0 mg/kg/injection, schedule: Q01DX009 (ip), vehicle: Klucel (hydroxypropylcellulose) (HPC)
[8] = dose: 400.0 mg/kg/injection, schedule: Q01DX009 (ip), vehicle: Klucel (hydroxypropylcellulose) (HPC)

Measured: T/C

[O-]c1c[n+](-c2ccc(Cl)cc2Cl)no1
inactive: dose: 50.0 mg/kg/injection, schedule: Q04DX002 (ip), vehicle: Klucel (hydroxypropylcellulose) (HPC) 100 % of control | [1] 100 % of control | [2] 106 % of control | [3] 103 % of control

OCC1OC(n2ccc3c([Se])ncnc32)C(O)C1O (stereo unspecified)
inactive: dose: 12.5 mg/kg/injection, schedule: Q01DX005 (ip), vehicle: saline 119 % of control | dose: 25.0 mg/kg/injection, schedule: Q01DX005 (ip), vehicle: saline 122 % of control | dose: 50.0 mg/kg/injection, schedule: Q01DX005 (ip), vehicle: saline 115 % of control | dose: 100.0 mg/kg/injection, schedule: Q01DX005 (ip), vehicle: saline 122 % of control

CCCCNC(=O)CC#N
inactive: [4] 104 % of control | [5] 107 % of control | [6] 107 % of control

NCCN1C(=O)C2C3CCC(O3)C2C1=O (stereo unspecified)
inactive: dose: 100.0 mg/kg/injection, schedule: Q01DX001 (ip), vehicle: carboxymethylcellulose (CMC) 97 % of control and 107 % of control | dose: 100.0 mg/kg/injection, schedule: Q04DX002 (ip), vehicle: carboxymethylcellulose (CMC) 97 % of control and 88 % of control | dose: 100.0 mg/kg/injection, schedule: Q04DX003 (ip), vehicle: carboxymethylcellulose (CMC) 101 % of control and 112 % of control | dose: 200.0 mg/kg/injection, schedule: Q01DX001 (ip), vehicle: carboxymethylcellulose (CMC) 97 % of control and 104 % of control | dose: 200.0 mg/kg/injection, schedule: Q04DX002 (ip), vehicle: carboxymethylcellulose (CMC) 93 % of control and 94 % of control | dose: 200.0 mg/kg/injection, schedule: Q04DX003 (ip), vehicle: carboxymethylcellulose (CMC) 104 % of control and 105 % of control | dose: 400.0 mg/kg/injection, schedule: Q01DX001 (ip), vehicle: carboxymethylcellulose (CMC) 96 % of control and 103 % of control | dose: 400.0 mg/kg/injection, schedule: Q04DX002 (ip), vehicle: carboxymethylcellulose (CMC) 108 % of control and 88 % of control | dose: 400.0 mg/kg/injection, schedule: Q04DX003 (ip), vehicle: carboxymethylcellulose (CMC) 96 % of control and 100 % of control

Cc1cccc(C(O)C(=O)O)c1 (stereo unspecified)
inactive: dose: 75.0 mg/kg/injection, schedule: Q01DX001 (ip), vehicle: acetone 94 % of control | dose: 150.0 mg/kg/injection, schedule: Q01DX001 (ip), vehicle: acetone 92 % of control

CNC(=O)Nc1cc(C)ccc1OC
inactive: [1] 100 % of control | [7] 104 % of control | [8] 109 % of control

CCN(CC)C(=S)[S][Bi]([S]C(=S)N(CC)CC)[S]C(=S)N(CC)CC
inactive: dose: 100.0 mg/kg/injection, schedule: Q01DX001 (ip), vehicle: steriod suspending solution 112 % of control | dose: 200.0 mg/kg/injection, schedule: Q01DX001 (ip), vehicle: steriod suspending solution 91 % of control | dose: 400.0 mg/kg/injection, schedule: Q01DX001 (ip), vehicle: steriod suspending solution 96 % of control

COc1ccc(Nc2cc(=S)nc(N)[nH]2)cc1
inactive: dose: 100.0 mg/kg/injection, schedule: Q01DX Z (ip), vehicle: methylcellulose (MC) 100 % of control | dose: 200.0 mg/kg/injection, schedule: Q01DX Z (ip), vehicle: methylcellulose (MC) 115 % of control

NS(=O)(=O)c1ccc(NC(=O)Nc2ccccc2Cl)cc1
inactive: dose: 100.0 mg/kg/injection, schedule: Q01DX001 (ip), vehicle: Klucel (hydroxypropylcellulose) (HPC) 90 % of control | [1] 100 % of control and 90 % of control | [2] 97 % of control and 108 % of control | [4] 106 % of control | dose: 200.0 mg/kg/injection, schedule: Q01DX001 (ip), vehicle: Klucel (hydroxypropylcellulose) (HPC) 88 % of control | [7] 94 % of control and 103 % of control | [3] 93 % of control and 108 % of control | [5] 106 % of control | dose: 400.0 mg/kg/injection, schedule: Q01DX001 (ip), vehicle: Klucel (hydroxypropylcellulose) (HPC) 92 % of control | [8] 98 % of control and 90 % of control | dose: 400.0 mg/kg/injection, schedule: Q04DX002 (ip), vehicle: Klucel (hydroxypropylcellulose) (HPC) 108 % of control and 92 % of control | [6] 105 % of control

CCc1ccc(/C=C/c2ccc(O)c3ncccc23)[n+](C)c1
inactive: dose: 2.0 mg/kg/injection, schedule: Q01DX015 (ip), vehicle: carboxymethylcellulose (CMC) 115 % of control | dose: 2.0 mg/kg/injection, schedule: Q03HX008 (ip), vehicle: other 94 % of control | dose: 2.0 mg/kg/injection, schedule: Q03HX016 (ip), vehicle: other 90 % of control | dose: 2.0 mg/kg/injection, schedule: Q03HX024 (ip), vehicle: other 98 % of control | dose: 4.0 mg/kg/injection, schedule: Q01DX009 (ip), vehicle: carboxymethylcellulose (CMC) 120 % of control | dose: 4.0 mg/kg/injection, schedule: Q01DX009 (ip), vehicle: other 97 % of control | dose: 4.0 mg/kg/injection, schedule: Q01DX015 (ip), vehicle: carboxymethylcellulose (CMC) 108 % of control | dose: 4.0 mg/kg/injection, schedule: Q03HX008 (ip), vehicle: other 98 % of control | dose: 4.0 mg/kg/injection, schedule: Q03HX016 (ip), vehicle: other 96 % of control | dose: 4.0 mg/kg/injection, schedule: Q03HX024 (ip), vehicle: other 97 % of control | dose: 5.0 mg/kg/injection, schedule: Q01DX001 (ip), vehicle: carboxymethylcellulose (CMC) 94 % of control | dose: 6.25 mg/kg/injection, schedule: Q01DX009 (ip), vehicle: saline 108 % of control | dose: 6.25 mg/kg/injection, schedule: Q04DX003 (ip), vehicle: saline 107 % of control | dose: 8.0 mg/kg/injection, schedule: Q01DX009 (ip), vehicle: other 106 % of control | dose: 8.0 mg/kg/injection, schedule: Q01DX015 (ip), vehicle: carboxymethylcellulose (CMC) 113 % of control | dose: 8.0 mg/kg/injection, schedule: Q03HX008 (ip), vehicle: other 104 % of control | dose: 8.0 mg/kg/injection, schedule: Q03HX016 (ip), vehicle: other 103 % of control | dose: 8.0 mg/kg/injection, schedule: Q03HX024 (ip), vehicle: other 108 % of control | dose: 10.0 mg/kg/injection, schedule: Q01DX001 (ip), vehicle: carboxymethylcellulose (CMC) 100 % of control | dose: 12.5 mg/kg/injection, schedule: Q01DX001 (ip), vehicle: saline 104 % of control | dose: 12.5 mg/kg/injection, schedule: Q01DX009 (ip), vehicle: saline 124 % of control | dose: 12.5 mg/kg/injection, schedule: Q04DX003 (ip), vehicle: saline 110 % of control | dose: 16.0 mg/kg/injection, schedule: Q01DX001 (ip), vehicle: other 107 % of control | dose: 16.0 mg/kg/injection, schedule: Q01DX009 (ip), vehicle: other 120 % of control | dose: 16.0 mg/kg/injection, schedule: Q03HX008 (ip), vehicle: other 112 % of control | dose: 16.0 mg/kg/injection, schedule: Q03HX016 (ip), vehicle: other 110 % of control | dose: 16.0 mg/kg/injection, schedule: Q03HX024 (ip), vehicle: other 122 % of control | dose: 16.0 mg/kg/injection, schedule: Q04DX003 (ip), vehicle: other 100 % of control | dose: 16.0 mg/kg/injection, schedule: Q08DX002 (ip), vehicle: other 97 % of control | dose: 20.0 mg/kg/injection, schedule: Q01DX001 (ip), vehicle: carboxymethylcellulose (CMC) 112 % of control | dose: 25.0 mg/kg/injection, schedule: Q01DX001 (ip), vehicle: saline 114 % of control | dose: 25.0 mg/kg/injection, schedule: Q01DX009 (ip), vehicle: saline 117 % of control | dose: 25.0 mg/kg/injection, schedule: Q04DX003 (ip), vehicle: saline 110 % of control | dose: 32.0 mg/kg/injection, schedule: Q01DX001 (ip), vehicle: other 102 % of control | dose: 32.0 mg/kg/injection, schedule: Q01DX009 (ip), vehicle: other 123 % of control | dose: 32.0 mg/kg/injection, schedule: Q01DX015 (ip), vehicle: carboxymethylcellulose (CMC) 121 % of control | dose: 32.0 mg/kg/injection, schedule: Q04DX003 (ip), vehicle: other 96 % of control | dose: 32.0 mg/kg/injection, schedule: Q08DX002 (ip), vehicle: other 96 % of control | dose: 40.0 mg/kg/injection, schedule: Q01DX001 (ip), vehicle: carboxymethylcellulose (CMC) 112 % of control
